# System: Staphylococcus aureus ATCC 43300
# Test: Micro-dilution broth MIC, Staphylococcus aureus
# Type: cell-based
# Details: ATCC43300, 24 h, 37 °C, read-out: Minimum Inhibitory Concentrations MIC
# Protocol: (§1) The standard strains, Gram-positive: Staphylococcus aureus ATCC […], Enterococcus faecalis Van B ATCC 51299 and Enterococcus faecium VA sensitive ATCC 35667, and Gram-negative: Escherichia coli ATCC 25922, Klebsiella pneumoniae ATCC 700603 and Acinetobacter baumannii ATCC 19606, came from a collection of the Environmental Biology Department, Medical University of Łódź. The standard strains were cultivated in Columbia Agar Medium and incubated at 37 °C for 24 h in aerobic conditions.
# (§2) The antibacterial activity of the racemates and E/Z-mixtures was investigated using the micro‑dilution broth method. The compounds were diluted in ethanol. This stock solution was mixed with 100 µL of Mueller-Hinton broth to obtain concentrations from 10 µg/mL to 80 µg/mL. The mixtures were then transferred to 96-well microtiter plates. The microbial suspension was standardised to a cell density of 1.5 × 10^8 CFU, which was equal to an optical density of 0.5 on the Mc Farland scale by a bio-Merieux densitometer; one well was filled with broth only to act as a control for strain growth.
row,MIC,Compound
1,32 µg/mL,"CC(=O)OCC=C(C)CCC(C)CCC=C(C)C (stereo not drawn) [Compound 34, 3,6,10-Trimethylundeca-2,9-dien-1-yl acetate]"
2,34 µg/mL,"CC(=O)OCC=C(C)C(C)CC(C)CCC=C(C)C (stereo not drawn) [Compound 35, 3,4,6,10-Tetramethylundec-2,9-dien-1-yl acetate]"
3,28 µg/mL,"CC(=O)OCC=C(C)CCC=C(C)CCC=C(C)C [Farnesyl acetate (5), farnesyl acetate, reference compound]"
4,16 µg/mL,"CNC(C)C1CCC(N)C(OC2C(N)CC(N)C(OC3OCC(C)(O)C(NC)C3O)C2O)O1 (stereo not drawn) [Gentamicin, reference compound]"

# System: Enterococcus faecalis ATCC 51299
# Test: Micro-dilution broth MIC, Enterococcus faecalis
# Type: cell-based
# Details: ATCC51299, 24 h, 37 °C, read-out: Minimum Inhibitory Concentrations MIC
# Protocol: as §1, §2
row,MIC,Compound
1,20 µg/mL,"CC(=O)OCC=C(C)CCC(C)CCC=C(C)C (stereo not drawn) [Compound 34, 3,6,10-Trimethylundeca-2,9-dien-1-yl acetate]"
2,16 µg/mL,"CC(=O)OCC=C(C)C(C)CC(C)CCC=C(C)C (stereo not drawn) [Compound 35, 3,4,6,10-Tetramethylundec-2,9-dien-1-yl acetate]"
3,20 µg/mL,"CC(=O)OCC=C(C)CCC=C(C)CCC=C(C)C [Farnesyl acetate (5), farnesyl acetate, reference compound]"
4,> 64 µg/mL,"CNC(C)C1CCC(N)C(OC2C(N)CC(N)C(OC3OCC(C)(O)C(NC)C3O)C2O)O1 (stereo not drawn) [Gentamicin, reference compound]"

# System: Enterococcus faecium ATCC 35667
# Test: Micro-dilution broth MIC, Enterococcus faecium
# Type: cell-based
# Details: ATCC35667, 24 h, 37 °C, read-out: Minimum Inhibitory Concentrations MIC
# Protocol: as §1, §2
row,MIC,Compound
1,18 µg/mL,"CC(=O)OCC=C(C)CCC(C)CCC=C(C)C (stereo not drawn) [Compound 34, 3,6,10-Trimethylundeca-2,9-dien-1-yl acetate]"
2,14 µg/mL,"CC(=O)OCC=C(C)C(C)CC(C)CCC=C(C)C (stereo not drawn) [Compound 35, 3,4,6,10-Tetramethylundec-2,9-dien-1-yl acetate]"
3,20 µg/mL,"CC(=O)OCC=C(C)CCC=C(C)CCC=C(C)C [Farnesyl acetate (5), farnesyl acetate, reference compound]"
4,32 µg/mL,"CNC(C)C1CCC(N)C(OC2C(N)CC(N)C(OC3OCC(C)(O)C(NC)C3O)C2O)O1 (stereo not drawn) [Gentamicin, reference compound]"

# System: Escherichia coli ATCC 25922
# Test: Micro-dilution broth MIC, Escherichia coli
# Type: cell-based
# Details: ATCC25922, 24 h, 37 °C, read-out: Minimum Inhibitory Concentrations MIC
# Protocol: as §1, §2
row,MIC,Compound
1,18 µg/mL,"CC(=O)OCC=C(C)CCC(C)CCC=C(C)C (stereo not drawn) [Compound 34, 3,6,10-Trimethylundeca-2,9-dien-1-yl acetate]"
2,16 µg/mL,"CC(=O)OCC=C(C)C(C)CC(C)CCC=C(C)C (stereo not drawn) [Compound 35, 3,4,6,10-Tetramethylundec-2,9-dien-1-yl acetate]"
3,28 µg/mL,"CC(=O)OCC=C(C)CCC=C(C)CCC=C(C)C [Farnesyl acetate (5), farnesyl acetate, reference compound]"
4,4 µg/mL,"CNC(C)C1CCC(N)C(OC2C(N)CC(N)C(OC3OCC(C)(O)C(NC)C3O)C2O)O1 (stereo not drawn) [Gentamicin, reference compound]"

# System: Klebsiella pneumoniae ATCC 700603
# Test: Micro-dilution broth MIC, Klebsiella pneumoniae
# Type: cell-based
# Details: ATCC700603, 24 h, 37 °C, read-out: Minimum Inhibitory Concentrations MIC
# Protocol: as §1, §2
row,MIC,Compound
1,20 µg/mL,"CC(=O)OCC=C(C)CCC(C)CCC=C(C)C (stereo not drawn) [Compound 34, 3,6,10-Trimethylundeca-2,9-dien-1-yl acetate]"
2,18 µg/mL,"CC(=O)OCC=C(C)C(C)CC(C)CCC=C(C)C (stereo not drawn) [Compound 35, 3,4,6,10-Tetramethylundec-2,9-dien-1-yl acetate]"
3,22 µg/mL,"CC(=O)OCC=C(C)CCC=C(C)CCC=C(C)C [Farnesyl acetate (5), farnesyl acetate, reference compound]"
4,32 µg/mL,"CNC(C)C1CCC(N)C(OC2C(N)CC(N)C(OC3OCC(C)(O)C(NC)C3O)C2O)O1 (stereo not drawn) [Gentamicin, reference compound]"

# System: Acinetobacter baumannii ATCC 19606
# Test: Micro-dilution broth MIC, Acinetobacter baumannii
# Type: cell-based
# Details: ATCC19606, 24 h, 37 °C, read-out: Minimum Inhibitory Concentrations MIC
# Protocol: as §1, §2
row,MIC,Compound
1,18 µg/mL,"CC(=O)OCC=C(C)CCC(C)CCC=C(C)C (stereo not drawn) [Compound 34, 3,6,10-Trimethylundeca-2,9-dien-1-yl acetate]"
2,12 µg/mL,"CC(=O)OCC=C(C)C(C)CC(C)CCC=C(C)C (stereo not drawn) [Compound 35, 3,4,6,10-Tetramethylundec-2,9-dien-1-yl acetate]"
3,22 µg/mL,"CC(=O)OCC=C(C)CCC=C(C)CCC=C(C)C [Farnesyl acetate (5), farnesyl acetate, reference compound]"
4,32 µg/mL,"CNC(C)C1CCC(N)C(OC2C(N)CC(N)C(OC3OCC(C)(O)C(NC)C3O)C2O)O1 (stereo not drawn) [Gentamicin, reference compound]"

# System: not listed separately
# Test: MTT viability, MEWO
# Type: cell-based, human
# Details: human, MEWO malignant melanoma cells, 1000 µM (IC50 exceeded 1000 µM), read-out: viability ± standard deviation at 1000 µM
# Protocol: (§3) Cell lines and in vitro culture conditions: The human promyelocytic leukaemia cell line HL-60 was obtained from the Centre of Molecular and Macromolecular Biology in Łódź, Poland and was cultured in RPMI 1640 medium with 20% heat-inactivated fetal bovine serum (FBS). To reduce spontaneous differentiation, the cells were never allowed to exceed a concentration of 1.0 × 10^6 cells/mL. The human keratinocyte cell line HaCaT was obtained from Cell Lines Service, Germany (CLS) and cultured in DMEM medium with 10% FBS. Human colorectal adenocarcinoma HT29 and normal epithelial IEC-6 cell lines (from ATCC) were cultured in DMEM medium with 10% FBS. The human skin melanoma cell line MEWO (from CLS) was cultured in DMEM:F12 supplemented with 2 mM L-glutamine and 10% FBS. Human fibroblasts from gingiva isolated from original tissue, HFIB-G, (from Provitro) were cultured in Quantum 333 (from Immunique). The media were supplemented with 100 U/mL penicillin and 100 µg/mL streptomycin; all media components were obtained from Life Technologies. The adherent cell lines used in the studies were seeded on microplates before they exceeded 80% of confluence. Cells were cultured at 37 °C in 5% CO2 air atmosphere/95% air atmosphere.
# (§4) Cytotoxic activity: The cells (the density for HL-60 was 0.5 × 10^4 cells/100 µL, otherwise it was 1 × 10^4 cells/100 µL) were plated into each well of 96-well microtiter plates and, after their attachment to the plate surface, treated with 10 µL of the indicated concentrations of compounds for 24 h. Viability was determined by MTT assay following the treatment. MTT (3-[4.5-dimethylthiazol-2-yl]-2.5-diphenyltetrazolium bromide; Sigma, St. Louis, MO, USA) solution was added to each well and incubated for another 4 h. The resulting MTT-formazan product was dissolved by the addition of lysis buffer (20% SDS and 50% DMF). The amount of formazan was determined by measuring absorbance at 570 nm with a Synergy 2 microplate reader (BioTek, Winooski, VT, USA) operated by the Gen5 program. The experiments were conducted three times with five replications. The results are expressed as an optical density ratio of the treatment to control. All data are presented as means ± SD.
row,Compound,"viability at 24 h, 1000 µM"
1,"CC(=O)OCC=C(C)CCC(C)CCC=C(C)C (stereo not drawn) [Compound 34, 3,6,10-Trimethylundeca-2,9-dien-1-yl acetate]",98%
2,"CC(=O)OCC=C(C)C(C)CC(C)CCC=C(C)C (stereo not drawn) [Compound 35, 3,4,6,10-Tetramethylundec-2,9-dien-1-yl acetate]",112%

# System: Malignant Melanoma MEWO
# Test: MTT viability, MEWO
# Type: cell-based, human
# Details: Homo sapiens, 24 h, range 10–1000 µM, read-out: half maximal inhibitory concentration (IC50), interpolated
# Protocol: as §3, §4
row,IC50,Compound
1,734 µM,"CC(=O)OCC=C(C)CCC=C(C)CCC=C(C)C [Farnesyl acetate (5), farnesyl acetate, reference compound]"

# System: not listed separately
# Test: MTT viability, HT29
# Type: cell-based, human
# Details: human, HT29 colorectal adenocarcinoma cells, 1000 µM (IC50 exceeded 1000 µM), read-out: viability ± standard deviation at 1000 µM
# Protocol: as §3, §4
row,Compound,"viability at 24 h, 1000 µM"
1,"CC(=O)OCC=C(C)CCC(C)CCC=C(C)C (stereo not drawn) [Compound 34, 3,6,10-Trimethylundeca-2,9-dien-1-yl acetate]",98%
2,"CC(=O)OCC=C(C)C(C)CC(C)CCC=C(C)C (stereo not drawn) [Compound 35, 3,4,6,10-Tetramethylundec-2,9-dien-1-yl acetate]",83%
3,"CC(=O)OCC=C(C)CCC=C(C)CCC=C(C)C [Farnesyl acetate (5), farnesyl acetate, reference compound]",105%

# System: Promyelocytic Leukaemia HL-60
# Test: MTT viability, HL-60
# Type: cell-based, human
# Details: Homo sapiens, HL-60, 24 h, HL-60, MTT, range 10–1000 µM, read-out: half maximal inhibitory concentration (IC50), interpolated
# Protocol: as §3, §4
row,IC50,Compound
1,312 µM,"CC(=O)OCC=C(C)CCC(C)CCC=C(C)C (stereo not drawn) [Compound 34, 3,6,10-Trimethylundeca-2,9-dien-1-yl acetate]"
2,343 µM,"CC(=O)OCC=C(C)C(C)CC(C)CCC=C(C)C (stereo not drawn) [Compound 35, 3,4,6,10-Tetramethylundec-2,9-dien-1-yl acetate]"
3,121 µM,"CC(=O)OCC=C(C)CCC=C(C)CCC=C(C)C [Farnesyl acetate (5), farnesyl acetate, reference compound]"

# System: not listed separately
# Test: MTT viability, HFIG
# Type: cell-based, human
# Details: human, HFIG (HFIB-G) gingival fibroblasts, 1000 µM (IC50 exceeded 1000 µM), read-out: viability ± standard deviation at 1000 µM
# Protocol: as §3, §4
row,Compound,"viability at 24 h, 1000 µM"
1,"CC(=O)OCC=C(C)CCC(C)CCC=C(C)C (stereo not drawn) [Compound 34, 3,6,10-Trimethylundeca-2,9-dien-1-yl acetate]",99%
2,"CC(=O)OCC=C(C)C(C)CC(C)CCC=C(C)C (stereo not drawn) [Compound 35, 3,4,6,10-Tetramethylundec-2,9-dien-1-yl acetate]",87%
3,"CC(=O)OCC=C(C)CCC=C(C)CCC=C(C)C [Farnesyl acetate (5), farnesyl acetate, reference compound]",98%

# System: not listed separately
# Test: MTT viability, HaCaT
# Type: cell-based, human
# Details: human, HaCaT keratinocytes, 1000 µM (IC50 exceeded 1000 µM), read-out: viability ± standard deviation at 1000 µM
# Protocol: as §3, §4
row,Compound,"viability at 24 h, 1000 µM"
1,"CC(=O)OCC=C(C)CCC(C)CCC=C(C)C (stereo not drawn) [Compound 34, 3,6,10-Trimethylundeca-2,9-dien-1-yl acetate]",110%
2,"CC(=O)OCC=C(C)C(C)CC(C)CCC=C(C)C (stereo not drawn) [Compound 35, 3,4,6,10-Tetramethylundec-2,9-dien-1-yl acetate]",102%
3,"CC(=O)OCC=C(C)CCC=C(C)CCC=C(C)C [Farnesyl acetate (5), farnesyl acetate, reference compound]",102%

# System: not listed separately
# Test: MTT viability, IEC6
# Type: cell-based
# Details: rat, IEC-6 small intestine epithelial cells, 1000 µM (IC50 exceeded 1000 µM), read-out: viability ± standard deviation at 1000 µM
# Protocol: as §3, §4
row,Compound,"viability at 24 h, 1000 µM"
1,"CC(=O)OCC=C(C)CCC(C)CCC=C(C)C (stereo not drawn) [Compound 34, 3,6,10-Trimethylundeca-2,9-dien-1-yl acetate]",79%
2,"CC(=O)OCC=C(C)C(C)CC(C)CCC=C(C)C (stereo not drawn) [Compound 35, 3,4,6,10-Tetramethylundec-2,9-dien-1-yl acetate]",71%
3,"CC(=O)OCC=C(C)CCC=C(C)CCC=C(C)C [Farnesyl acetate (5), farnesyl acetate, reference compound]",78%

# — paper PMC6272674, “Selected Compounds Structurally Related to Acyclic Sesquiterpenoids and Their Antibacterial and Cytotoxic Activity” (Molecules, 2015)
